Measurements published in ChEMBL document CHEMBL4257449, “New N-(2-phenyl-4-oxo-1,3-thiazolidin-3-yl)-1,2-benzothiazole-3-carboxamides and acetamides as antimicrobial agents” (2017).
In brackets after ≈: the same amount, converted by molar mass.

What was measured:
Escherichia coli [1] = assay: Antibacterial activity against Escherichia coli ATCC 35210 after 24 hrs by microdilution method; type: functional; conditions: ATCC 35210, 24 h
Micrococcus flavus [2] = assay: Bactericidal activity against Micrococcus flavus ATCC 10240 incubated for 24 hrs followed by serial sub-cultivation and measured after 24 hrs by microdilution method; type: functional
Enterobacter cloacae [3] = assay: Antibacterial activity against Enterobacter cloacae after 24 hrs by microdilution method; type: functional
Salmonella typhimurium [4] = assay: Bactericidal activity against Salmonella typhimurium ATCC 13311 incubated for 24 hrs followed by serial sub-cultivation and measured after 24 hrs by microdilution method; type: functional, Salmonella enterica subsp. enterica serovar Typhimurium
Bacillus cereus [5] = assay: Bactericidal activity against Bacillus cereus incubated for 24 hrs followed by serial sub-cultivation and measured after 24 hrs by microdilution method; type: functional
Escherichia coli [6] = assay: Bactericidal activity against Escherichia coli ATCC 35210 incubated for 24 hrs followed by serial sub-cultivation and measured after 24 hrs by microdilution method; type: functional
Aspergillus ochraceus [7] = assay: Fungicidal activity against Aspergillus ochraceus ATCC 12066 incubated for 72 hrs followed by serial sub-cultivation for 72 hrs and measured after 72 hrs by serial dilution method; type: functional
Staphylococcus aureus [8] = assay: Bactericidal activity against Staphylococcus aureus ATCC 6538 incubated for 24 hrs followed by serial sub-cultivation and measured after 24 hrs by microdilution method; type: functional
Penicillium ochrochloron [9] = assay: Antifungal activity against Penicillium ochrochloron ATCC 9112 after 72 hrs by serial dilution method; type: functional; conditions: ATCC 9112, 72 h
Pseudomonas aeruginosa [10] = assay: Antibacterial activity against Pseudomonas aeruginosa ATCC 27853 after 24 hrs by microdilution method; type: functional; conditions: ATCC 27853, 24 h
Aspergillus fumigatus [11] = assay: Antifungal activity against Aspergillus fumigatus after 72 hrs by serial dilution method; type: functional
Aspergillus ochraceus [12] = assay: Antifungal activity against Aspergillus ochraceus ATCC 12066 after 72 hrs by serial dilution method; type: functional; conditions: ATCC 12066, 72 h
Trichoderma viride [13] = assay: Antifungal activity against Trichoderma viride IAM 5061 after 72 hrs by serial dilution method; type: functional; conditions: IAM 5061, 72 h
Candida albicans [14] = assay: Fungicidal activity against Candida albicans incubated for 72 hrs followed by serial sub-cultivation for 72 hrs and measured after 72 hrs by serial dilution method; type: functional
Aspergillus fumigatus [15] = assay: Fungicidal activity against Aspergillus fumigatus incubated for 72 hrs followed by serial sub-cultivation for 72 hrs and measured after 72 hrs by serial dilution method; type: functional
Listeria monocytogenes [16] = assay: Antibacterial activity against Listeria monocytogenes NCTC 7973 after 24 hrs by microdilution method; type: functional; conditions: NCTC 7973, 24 h
Talaromyces funiculosus [17] = assay: Antifungal activity against Penicillium funiculosum ATCC 36839 after 72 hrs by serial dilution method; type: functional; conditions: ATCC 36839, 72 h
Aspergillus versicolor [18] = assay: Fungicidal activity against Aspergillus versicolor ATCC 11730 incubated for 72 hrs followed by serial sub-cultivation for 72 hrs and measured after 72 hrs by serial dilution method; type: functional
Aspergillus niger [19] = assay: Antifungal activity against Aspergillus niger ATCC 6275 after 72 hrs by serial dilution method; type: functional; conditions: ATCC 6275, 72 h
Talaromyces funiculosus [20] = assay: Fungicidal activity against Penicillium funiculosum ATCC 36839 incubated for 72 hrs followed by serial sub-cultivation for 72 hrs and measured after 72 hrs by serial dilution method; type: functional
Pseudomonas aeruginosa [21] = assay: Bactericidal activity against Pseudomonas aeruginosa ATCC 27853 incubated for 24 hrs followed by serial sub-cultivation and measured after 24 hrs by microdilution method; type: functional
Bacillus cereus [22] = assay: Antibacterial activity against Bacillus cereus after 24 hrs by microdilution method; type: functional
Listeria monocytogenes [23] = assay: Bactericidal activity against Listeria monocytogenes NCTC 7973 incubated for 24 hrs followed by serial sub-cultivation and measured after 24 hrs by microdilution method; type: functional
Candida albicans [24] = assay: Antifungal activity against Candida albicans after 72 hrs by serial dilution method; type: functional
Aspergillus niger [25] = assay: Fungicidal activity against Aspergillus niger ATCC 6275 incubated for 72 hrs followed by serial sub-cultivation for 72 hrs and measured after 72 hrs by serial dilution method; type: functional
Trichoderma viride [26] = assay: Fungicidal activity against Trichoderma viride IAM 5061 incubated for 72 hrs followed by serial sub-cultivation for 72 hrs and measured after 72 hrs by serial dilution method; type: functional
Micrococcus flavus [27] = assay: Antibacterial activity against Micrococcus flavus ATCC 10240 after 24 hrs by microdilution method; type: functional; conditions: ATCC 10240, 24 h
Enterobacter cloacae [28] = assay: Bactericidal activity against Enterobacter cloacae incubated for 24 hrs followed by serial sub-cultivation and measured after 24 hrs by microdilution method; type: functional
Salmonella typhimurium [29] = assay: Antibacterial activity against Salmonella typhimurium ATCC 13311 after 24 hrs by microdilution method; type: functional, Salmonella enterica subsp. enterica serovar Typhimurium; conditions: Salmonella enterica, ATCC 13311, 24 h
Penicillium ochrochloron [30] = assay: Fungicidal activity against Penicillium ochrochloron ATCC 9112 incubated for 72 hrs followed by serial sub-cultivation for 72 hrs and measured after 72 hrs by serial dilution method; type: functional
Staphylococcus aureus [31] = assay: Antibacterial activity against Staphylococcus aureus ATCC 6538 after 24 hrs by microdilution method; type: functional; conditions: ATCC 6538, 24 h
Aspergillus versicolor [32] = assay: Antifungal activity against Aspergillus versicolor ATCC 11730 after 72 hrs by serial dilution method; type: functional; conditions: ATCC 11730, 72 h

MIC (Escherichia coli [1]) | MIC (Enterobacter cloacae [3]) | MIC (Penicillium ochrochloron [9]) | MIC (Pseudomonas aeruginosa [10]) | MIC (Aspergillus fumigatus [11]) | MIC (Aspergillus ochraceus [12]) | MIC (Trichoderma viride [13]) | MIC (Listeria monocytogenes [16]) | MIC (Talaromyces funiculosus [17]) | MIC (Aspergillus niger [19]) | Compound | MBC99.5 (Micrococcus flavus [2]) | MBC99.5 (Salmonella typhimurium [4]) | MBC99.5 (Bacillus cereus [5]) | MBC99.5 (Escherichia coli [6]) | MFC99.5 (Aspergillus ochraceus [7]) | MBC99.5 (Staphylococcus aureus [8]) | MFC99.5 (Candida albicans [14]) | MFC99.5 (Aspergillus fumigatus [15]) | MFC99.5 (Aspergillus versicolor [18]) | MFC99.5 (Talaromyces funiculosus [20]) | other results
107 µM (≈ 40 µg/mL) | 107 µM (≈ 40 µg/mL) | 402 µM (≈ 150 µg/mL) | 107 µM (≈ 40 µg/mL) | 107 µM (≈ 40 µg/mL) | 402 µM (≈ 150 µg/mL) | 402 µM (≈ 150 µg/mL) | 214 µM (≈ 79.9 µg/mL) | 214 µM (≈ 79.9 µg/mL) | 402 µM (≈ 150 µg/mL) | O=C(NN1C(=O)CSC1c1ccc(F)cc1)c1nsc2ccccc12 (stereo unspecified) | 40.2 ×10⁻² umol/ml | 21.4 ×10⁻² umol/ml | 40.2 ×10⁻² umol/ml | 21.4 ×10⁻² umol/ml | 80.4 ×10⁻² umol/ml | 21.4 ×10⁻² umol/ml | 10.7 ×10⁻² umol/ml | 21.4 ×10⁻² umol/ml | 80.4 ×10⁻² umol/ml | 53.6 ×10⁻² umol/ml | MBC99.5 (Pseudomonas aeruginosa [21]): 21.4 ×10⁻² umol/ml; MIC (Bacillus cereus [22]): 214 µM (≈ 79.9 µg/mL); MBC99.5 (Listeria monocytogenes [23]): 40.2 ×10⁻² umol/ml; MIC (Candida albicans [24]): 80 µM (≈ 29.9 µg/mL); MFC99.5 (Aspergillus niger [25]): 80.4 ×10⁻² umol/ml; MFC99.5 (Trichoderma viride [26]): 80.4 ×10⁻² umol/ml; MIC (Micrococcus flavus [27]): 214 µM (≈ 79.9 µg/mL); MBC99.5 (Enterobacter cloacae [28]): 21.4 ×10⁻² umol/ml; MIC (Salmonella typhimurium [29]): 107 µM (≈ 40 µg/mL); MFC99.5 (Penicillium ochrochloron [30]): 80.4 ×10⁻² umol/ml; MIC (Staphylococcus aureus [31]): 107 µM (≈ 40 µg/mL); MIC (Aspergillus versicolor [32]): 402 µM (≈ 150 µg/mL)
272 µM (≈ 110 µg/mL) | 198 µM (≈ 80.3 µg/mL) | 148 µM (≈ 60 µg/mL) | 272 µM (≈ 110 µg/mL) | 296 µM (≈ 120 µg/mL) | 74 µM (≈ 30 µg/mL) | 74 µM (≈ 30 µg/mL) | 543 µM (≈ 220 µg/mL) | 74 µM (≈ 30 µg/mL) | 148 µM (≈ 60 µg/mL) | O=C(Cc1nsc2ccccc12)NN1C(=O)CSC1c1c(F)cccc1F (stereo unspecified) | 37 ×10⁻² umol/ml | 37 ×10⁻² umol/ml | 37 ×10⁻² umol/ml | 37 ×10⁻² umol/ml | 9.9 ×10⁻² umol/ml | 37 ×10⁻² umol/ml | 19.8 ×10⁻² umol/ml | 37 ×10⁻² umol/ml | 9.9 ×10⁻² umol/ml | 9.9 ×10⁻² umol/ml | MBC99.5 (Pseudomonas aeruginosa [21]): 37 ×10⁻² umol/ml; MIC (Bacillus cereus [22]): 198 µM (≈ 80.3 µg/mL); MBC99.5 (Listeria monocytogenes [23]): 74 ×10⁻² umol/ml; MIC (Candida albicans [24]): 99 µM (≈ 40.1 µg/mL); MFC99.5 (Aspergillus niger [25]): 19.8 ×10⁻² umol/ml; MFC99.5 (Trichoderma viride [26]): 9.9 ×10⁻² umol/ml; MIC (Micrococcus flavus [27]): 272 µM (≈ 110 µg/mL); MBC99.5 (Enterobacter cloacae [28]): 37 ×10⁻² umol/ml; MIC (Salmonella typhimurium [29]): 198 µM (≈ 80.3 µg/mL); MFC99.5 (Penicillium ochrochloron [30]): 19.8 ×10⁻² umol/ml; MIC (Staphylococcus aureus [31]): 198 µM (≈ 80.3 µg/mL); MIC (Aspergillus versicolor [32]): 74 µM (≈ 30 µg/mL)
270 µM (≈ 110 µg/mL) | 368 µM (≈ 150 µg/mL) | 368 µM (≈ 150 µg/mL) | 196 µM (≈ 79.9 µg/mL) | 368 µM (≈ 150 µg/mL) | 368 µM (≈ 150 µg/mL) | 138 µM (≈ 56.3 µg/mL) | 270 µM (≈ 110 µg/mL) | 368 µM (≈ 150 µg/mL) | 368 µM (≈ 150 µg/mL) | O=C(NN1C(=O)CSC1c1c(F)cccc1Cl)c1nsc2ccccc12 (stereo unspecified) | 36.8 ×10⁻² umol/ml | 36.8 ×10⁻² umol/ml | 36.8 ×10⁻² umol/ml | 36.8 ×10⁻² umol/ml | 73.5 ×10⁻² umol/ml | 36.8 ×10⁻² umol/ml | 85.8 ×10⁻² umol/ml | 73.5 ×10⁻² umol/ml | 73.5 ×10⁻² umol/ml | 73.5 ×10⁻² umol/ml | MBC99.5 (Pseudomonas aeruginosa [21]): 36.8 ×10⁻² umol/ml; MIC (Bacillus cereus [22]): 196 µM (≈ 79.9 µg/mL); MBC99.5 (Listeria monocytogenes [23]): 36.8 ×10⁻² umol/ml; MIC (Candida albicans [24]): 735 µM (≈ 300 µg/mL); MFC99.5 (Aspergillus niger [25]): 73.5 ×10⁻² umol/ml; MFC99.5 (Trichoderma viride [26]): 18.4 ×10⁻² umol/ml; MIC (Micrococcus flavus [27]): 270 µM (≈ 110 µg/mL); MBC99.5 (Enterobacter cloacae [28]): 73.5 ×10⁻² umol/ml; MIC (Salmonella typhimurium [29]): 196 µM (≈ 79.9 µg/mL); MFC99.5 (Penicillium ochrochloron [30]): 85.8 ×10⁻² umol/ml; MIC (Staphylococcus aureus [31]): 196 µM (≈ 79.9 µg/mL); MIC (Aspergillus versicolor [32]): 184 µM (≈ 75 µg/mL)
